Laboratory results from article PMC6986443, “T‐495, a novel low cooperative M1 receptor positive allosteric modulator, improves memory deficits associated with cholinergic dysfunction and is characterized by low gastrointestinal side effect risk” (Pharmacology Research & Perspectives, 2020).

Columns and labels:
[1] = system: CaMKIIα‐tTA/A53T α‐syn dTg mice; experiment: Y‐maze task; assay type: in vivo, mouse; conditions: 3 mg/kg p.o.
Procedure: The Y‐maze was fabricated from gray plastic and consisted of three arms (40 cm long, 12 cm high, 3 cm wide at the bottom, and 10 cm wide at the top) with an angle of 120°. Visual cues were placed outside each arm, and the apparatus was illuminated at 10 lux. […] An arm entry was defined as all four paws of the mouse being in the arm, and the sequence of arm entries was monitored with a video camera and counted manually. An alternation was defined as successive entries into the three arms on overlapping triplet sets.36 The percentage of alternation was calculated as the ratio of actual to possible alternations (total number of arm entries minus 2) multiplied by 100.

Steroid 5α-reductase = experiment: Selectivity panel; assay type: biochemical
Source text: (§1) The selectivity of T‐495 at 10 μmol/L against a panel of 106 targets, including receptors, enzymes, ion channels, and transporters, was characterized (Eurofins Panlabs Taiwan Ltd., Taipei, Taiwan).

[2] = target: T1, Protein tyrosine kinase, EGF receptor (Homo sapiens, UniProt P00533); experiment: Selectivity panel; assay type: biochemical
T1 construct: purchased Eurofins Panlabs Taiwan Ltd
Source text: as §1

Phosphodiesterase PDE6 = target: T2, Phosphodiesterase PDE6 (Bos taurus, UniProt P11541+P23439); experiment: Selectivity panel; assay type: biochemical
T2 construct: purchased Eurofins Panlabs Taiwan Ltd
Source text: as §1

Phosphodiesterase PDE4D2 = target: T3, Phosphodiesterase PDE4D2 (Homo sapiens, UniProt Q08499); experiment: Selectivity panel; assay type: biochemical
T3 construct: purchased Eurofins Panlabs Taiwan Ltd
Source text: as §1

[3] = target: T4, Nitric oxide synthase, neuronal (nNOS) (Rattus norvegicus, UniProt P29476); experiment: Selectivity panel; assay type: biochemical
T4 construct: purchased Eurofins Panlabs Taiwan Ltd
Source text: as §1

[4] = system: ATPase, Ca2+, Skeletal Muscle; experiment: Selectivity panel; assay type: biochemical
Source text: as §1

Xanthine oxidase = target: T5, Xanthine oxidase (Bos taurus, UniProt P80457); experiment: Selectivity panel; assay type: biochemical
T5 construct: purchased Eurofins Panlabs Taiwan Ltd
Source text: as §1

[5] = target: T6, Nitric oxide synthase, inducible (iNOS) (Mus musculus, UniProt P29477); experiment: Selectivity panel; assay type: biochemical
T6 construct: purchased Eurofins Panlabs Taiwan Ltd
Source text: as §1

Phosphodiesterase PDE5 = target: T7, Phosphodiesterase PDE5 (Homo sapiens, UniProt O76074); experiment: Selectivity panel; assay type: biochemical
T7 construct: purchased Eurofins Panlabs Taiwan Ltd
Source text: as §1

Peptidase, factor Xa = target: T8, Peptidase, factor Xa (Homo sapiens, UniProt P00742); experiment: Selectivity panel; assay type: biochemical
T8 construct: purchased Eurofins Panlabs Taiwan Ltd
Source text: as §1

[6] = target: T9, Monoamine oxidase A (MAO-A) (Homo sapiens, UniProt P21397); experiment: Selectivity panel; assay type: biochemical
T9 construct: purchased Eurofins Panlabs Taiwan Ltd
Source text: as §1

Cyclooxygenase-2 (COX-2) = target: T10, Cyclooxygenase-2 (COX-2) (Homo sapiens, UniProt P35354); experiment: Selectivity panel; assay type: biochemical
T10 construct: purchased Eurofins Panlabs Taiwan Ltd
Source text: as §1

[7] = target: T11, Phosphodiesterase PDE10A2 (Homo sapiens, UniProt Q9Y233); experiment: Selectivity panel; assay type: biochemical
T11 construct: purchased Eurofins Panlabs Taiwan Ltd
Source text: as §1

Phosphodiesterase PDE4 = experiment: Selectivity panel; assay type: biochemical
Source text: as §1

Lipoxygenase (5-LO) = target: T12, Lipoxygenase (5-LO) (Homo sapiens, UniProt P09917); experiment: Selectivity panel; assay type: biochemical
T12 construct: purchased Eurofins Panlabs Taiwan Ltd
Source text: as §1

[8] = target: T13, Monoamine oxidase B (MAO-B) (Homo sapiens, UniProt P27338); experiment: Selectivity panel; assay type: biochemical
T13 construct: purchased Eurofins Panlabs Taiwan Ltd
Source text: as §1

ATPase, Na+/K+, Heart = experiment: Selectivity panel; assay type: biochemical
Source text: as §1

Cannabinoid CB1 = target: T14, Cannabinoid CB1 (Homo sapiens, UniProt P21554); experiment: Selectivity panel; assay type: binding
T14 construct: purchased Eurofins Panlabs Taiwan Ltd
Source text: as §1

[9] = system: Calcium channel L-type, phenylalkylamine; experiment: Selectivity panel; assay type: binding
Source text: as §1

Melatonin MT1 = target: T15, Melatonin MT1 (Homo sapiens, UniProt P48039); experiment: Selectivity panel; assay type: binding
T15 construct: purchased Eurofins Panlabs Taiwan Ltd
Source text: as §1

Muscarinic M2 = target: T16, Muscarinic M2 (Homo sapiens, UniProt P08172); experiment: Selectivity panel; assay type: binding
T16 construct: purchased Eurofins Panlabs Taiwan Ltd
Source text: as §1

Adrenergic β1 = target: T17, Adrenergic β1 (Homo sapiens, UniProt P08588); experiment: Selectivity panel; assay type: binding
T17 construct: purchased Eurofins Panlabs Taiwan Ltd
Source text: as §1

Adenosine A1 = target: T18, Adenosine A1 (Homo sapiens, UniProt P30542); experiment: Selectivity panel; assay type: binding
T18 construct: purchased Eurofins Panlabs Taiwan Ltd
Source text: as §1

Potassium channel (SKCA) = experiment: Selectivity panel; assay type: binding
Source text: as §1

GABAB, non-selective = experiment: Selectivity panel; assay type: binding
Source text: as §1

Dopamine D2S = target: T19, Dopamine D2S (Homo sapiens, UniProt P14416); experiment: Selectivity panel; assay type: binding
T19 construct: purchased Eurofins Panlabs Taiwan Ltd
Source text: as §1

Histamine H2 = target: T20, Histamine H2 (Homo sapiens, UniProt P25021); experiment: Selectivity panel; assay type: binding
T20 construct: purchased Eurofins Panlabs Taiwan Ltd
Source text: as §1

Angiotensin AT2 = target: T21, Angiotensin AT2 (Homo sapiens, UniProt P50052); experiment: Selectivity panel; assay type: binding
T21 construct: purchased Eurofins Panlabs Taiwan Ltd
Source text: as §1

Adenosine A2A = target: T22, Adenosine A2A (Homo sapiens, UniProt P29274); experiment: Selectivity panel; assay type: binding
T22 construct: purchased Eurofins Panlabs Taiwan Ltd
Source text: as §1

Bradykinin B2 = target: T23, Bradykinin B2 (Homo sapiens, UniProt P30411); experiment: Selectivity panel; assay type: binding
T23 construct: purchased Eurofins Panlabs Taiwan Ltd
Source text: as §1

Dopamine D2L = target: T24, Dopamine D2L (Homo sapiens, UniProt P14416); experiment: Selectivity panel; assay type: binding
T24 construct: purchased Eurofins Panlabs Taiwan Ltd
Source text: as §1

Endothelin ETA = target: T25, Endothelin ETA (Homo sapiens, UniProt P25101); experiment: Selectivity panel; assay type: binding
T25 construct: purchased Eurofins Panlabs Taiwan Ltd
Source text: as §1

[10] = target: T26, Growth hormone secretagogue (ghrelin) (Homo sapiens, UniProt Q92847); experiment: Selectivity panel; assay type: binding
T26 construct: purchased Eurofins Panlabs Taiwan Ltd
Source text: as §1

Serotonin 5-HT4 = experiment: Selectivity panel; assay type: binding
Source text: as §1

Dopamine D4.2 = experiment: Selectivity panel; assay type: binding
Source text: as §1

Androgen (testosterone) = experiment: Selectivity panel; assay type: binding
Source text: as §1

Glutamate, kainate = experiment: Selectivity panel; assay type: binding
Source text: as §1

[11] = target: T27, Cholecystokinin CCK2 (CCKB) (Homo sapiens, UniProt P32239); experiment: Selectivity panel; assay type: binding
T27 construct: purchased Eurofins Panlabs Taiwan Ltd
Source text: as §1

Histamine H1 = target: T28, Histamine H1 (Homo sapiens, UniProt P35367); experiment: Selectivity panel; assay type: binding
T28 construct: purchased Eurofins Panlabs Taiwan Ltd
Source text: as §1

T10 sequence (P35354 18-604): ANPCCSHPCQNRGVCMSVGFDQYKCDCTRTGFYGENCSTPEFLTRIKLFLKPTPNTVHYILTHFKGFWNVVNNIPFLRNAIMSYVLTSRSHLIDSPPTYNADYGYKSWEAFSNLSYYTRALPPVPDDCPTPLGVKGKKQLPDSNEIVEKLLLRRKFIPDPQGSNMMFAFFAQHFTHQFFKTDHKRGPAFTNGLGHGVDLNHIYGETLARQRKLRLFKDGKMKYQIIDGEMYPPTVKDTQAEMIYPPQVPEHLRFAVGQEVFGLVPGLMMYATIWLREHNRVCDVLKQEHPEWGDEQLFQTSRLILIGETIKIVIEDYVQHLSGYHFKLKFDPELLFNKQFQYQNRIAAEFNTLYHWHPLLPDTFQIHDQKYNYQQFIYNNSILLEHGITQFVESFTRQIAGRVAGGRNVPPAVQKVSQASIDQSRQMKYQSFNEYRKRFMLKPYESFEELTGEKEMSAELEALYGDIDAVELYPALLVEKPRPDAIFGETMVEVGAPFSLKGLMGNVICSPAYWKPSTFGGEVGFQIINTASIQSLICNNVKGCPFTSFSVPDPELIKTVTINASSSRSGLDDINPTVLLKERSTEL
T22 sequence (P29274 whole entry): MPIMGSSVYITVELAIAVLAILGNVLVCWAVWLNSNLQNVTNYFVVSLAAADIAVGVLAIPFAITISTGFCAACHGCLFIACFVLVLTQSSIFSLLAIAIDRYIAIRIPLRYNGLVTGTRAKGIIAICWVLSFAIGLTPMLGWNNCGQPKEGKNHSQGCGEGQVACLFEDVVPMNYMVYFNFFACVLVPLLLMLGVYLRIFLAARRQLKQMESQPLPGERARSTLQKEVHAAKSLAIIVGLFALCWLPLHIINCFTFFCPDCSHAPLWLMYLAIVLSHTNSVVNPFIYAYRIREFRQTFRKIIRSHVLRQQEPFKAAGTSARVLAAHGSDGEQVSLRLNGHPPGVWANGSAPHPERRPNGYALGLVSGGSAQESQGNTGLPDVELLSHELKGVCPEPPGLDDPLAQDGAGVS
T14 sequence (P21554 whole entry): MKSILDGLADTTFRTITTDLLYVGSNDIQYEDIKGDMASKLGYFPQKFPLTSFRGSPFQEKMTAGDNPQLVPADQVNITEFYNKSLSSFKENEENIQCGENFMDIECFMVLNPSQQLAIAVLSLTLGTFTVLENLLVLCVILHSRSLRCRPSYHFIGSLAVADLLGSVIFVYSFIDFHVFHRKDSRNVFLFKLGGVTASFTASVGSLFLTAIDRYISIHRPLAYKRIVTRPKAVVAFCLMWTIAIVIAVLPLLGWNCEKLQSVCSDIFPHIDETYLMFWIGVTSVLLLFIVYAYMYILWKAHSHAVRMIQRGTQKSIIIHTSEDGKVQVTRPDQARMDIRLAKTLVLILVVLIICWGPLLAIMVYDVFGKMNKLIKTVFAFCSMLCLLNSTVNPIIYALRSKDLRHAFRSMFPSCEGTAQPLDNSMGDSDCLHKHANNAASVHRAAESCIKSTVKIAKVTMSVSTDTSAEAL
T18 sequence (P30542 whole entry): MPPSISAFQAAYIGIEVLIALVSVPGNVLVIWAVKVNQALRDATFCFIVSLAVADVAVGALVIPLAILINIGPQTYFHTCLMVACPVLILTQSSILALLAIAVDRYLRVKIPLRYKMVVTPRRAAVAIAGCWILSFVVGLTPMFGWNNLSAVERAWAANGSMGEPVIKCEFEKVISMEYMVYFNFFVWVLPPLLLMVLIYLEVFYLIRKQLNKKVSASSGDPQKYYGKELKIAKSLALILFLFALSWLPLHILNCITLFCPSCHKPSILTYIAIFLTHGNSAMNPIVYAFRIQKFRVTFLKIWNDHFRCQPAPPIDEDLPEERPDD
T21 sequence (P50052 whole entry): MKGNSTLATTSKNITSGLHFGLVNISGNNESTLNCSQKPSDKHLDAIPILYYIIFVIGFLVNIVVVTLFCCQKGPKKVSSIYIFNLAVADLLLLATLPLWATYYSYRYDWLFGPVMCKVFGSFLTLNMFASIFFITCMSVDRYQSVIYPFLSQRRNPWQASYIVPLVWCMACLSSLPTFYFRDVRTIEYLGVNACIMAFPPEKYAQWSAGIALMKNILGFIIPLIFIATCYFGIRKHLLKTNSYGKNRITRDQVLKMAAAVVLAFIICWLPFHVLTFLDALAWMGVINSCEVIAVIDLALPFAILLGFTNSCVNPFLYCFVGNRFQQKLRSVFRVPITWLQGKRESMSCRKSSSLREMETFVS
T5 sequence (P80457 2-1332 limits assumed): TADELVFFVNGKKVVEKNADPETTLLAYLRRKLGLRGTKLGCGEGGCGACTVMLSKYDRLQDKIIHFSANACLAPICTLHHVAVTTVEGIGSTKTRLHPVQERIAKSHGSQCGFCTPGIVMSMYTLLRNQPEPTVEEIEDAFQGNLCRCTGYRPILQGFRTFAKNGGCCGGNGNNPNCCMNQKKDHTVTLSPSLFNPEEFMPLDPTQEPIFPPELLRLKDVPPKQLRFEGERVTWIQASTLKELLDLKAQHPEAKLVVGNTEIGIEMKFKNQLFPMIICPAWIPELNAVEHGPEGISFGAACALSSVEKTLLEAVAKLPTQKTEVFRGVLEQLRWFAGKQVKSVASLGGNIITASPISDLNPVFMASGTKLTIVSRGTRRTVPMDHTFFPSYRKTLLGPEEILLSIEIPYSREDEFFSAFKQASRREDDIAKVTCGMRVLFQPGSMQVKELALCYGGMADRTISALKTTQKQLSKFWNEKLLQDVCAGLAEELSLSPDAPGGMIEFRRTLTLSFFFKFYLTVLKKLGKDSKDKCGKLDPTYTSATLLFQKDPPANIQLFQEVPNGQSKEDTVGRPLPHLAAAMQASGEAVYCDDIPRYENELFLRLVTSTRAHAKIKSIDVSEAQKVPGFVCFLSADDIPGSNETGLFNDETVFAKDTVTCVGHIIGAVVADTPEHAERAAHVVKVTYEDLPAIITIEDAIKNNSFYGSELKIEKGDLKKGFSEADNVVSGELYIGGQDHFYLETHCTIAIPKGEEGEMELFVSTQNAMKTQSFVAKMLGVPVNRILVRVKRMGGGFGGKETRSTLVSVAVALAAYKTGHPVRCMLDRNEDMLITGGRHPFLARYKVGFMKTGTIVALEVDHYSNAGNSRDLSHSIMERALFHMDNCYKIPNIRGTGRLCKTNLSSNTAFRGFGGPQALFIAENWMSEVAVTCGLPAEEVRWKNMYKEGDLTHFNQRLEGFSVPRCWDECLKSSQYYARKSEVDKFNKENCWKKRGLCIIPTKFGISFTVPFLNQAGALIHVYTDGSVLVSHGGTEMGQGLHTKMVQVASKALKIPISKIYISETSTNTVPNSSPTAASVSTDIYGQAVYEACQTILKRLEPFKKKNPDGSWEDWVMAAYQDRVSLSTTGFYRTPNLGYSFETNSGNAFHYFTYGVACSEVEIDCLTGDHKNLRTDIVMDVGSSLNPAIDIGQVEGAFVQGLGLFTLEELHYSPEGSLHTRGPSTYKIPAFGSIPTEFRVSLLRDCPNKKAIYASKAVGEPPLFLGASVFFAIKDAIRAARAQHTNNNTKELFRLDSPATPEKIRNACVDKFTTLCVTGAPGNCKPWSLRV
T25 sequence (P25101 21-427): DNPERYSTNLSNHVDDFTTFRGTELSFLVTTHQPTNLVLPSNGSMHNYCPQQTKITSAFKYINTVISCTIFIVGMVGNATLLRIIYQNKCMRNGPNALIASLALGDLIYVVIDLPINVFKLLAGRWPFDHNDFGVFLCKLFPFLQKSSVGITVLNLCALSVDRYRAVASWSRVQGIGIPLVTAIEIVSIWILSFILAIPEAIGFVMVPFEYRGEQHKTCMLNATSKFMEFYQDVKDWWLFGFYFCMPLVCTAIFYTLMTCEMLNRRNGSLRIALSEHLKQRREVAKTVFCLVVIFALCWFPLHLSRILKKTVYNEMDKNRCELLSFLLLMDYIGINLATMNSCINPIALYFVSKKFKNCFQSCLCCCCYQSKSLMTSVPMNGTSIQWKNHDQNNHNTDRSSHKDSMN
T9 sequence (P21397 whole entry): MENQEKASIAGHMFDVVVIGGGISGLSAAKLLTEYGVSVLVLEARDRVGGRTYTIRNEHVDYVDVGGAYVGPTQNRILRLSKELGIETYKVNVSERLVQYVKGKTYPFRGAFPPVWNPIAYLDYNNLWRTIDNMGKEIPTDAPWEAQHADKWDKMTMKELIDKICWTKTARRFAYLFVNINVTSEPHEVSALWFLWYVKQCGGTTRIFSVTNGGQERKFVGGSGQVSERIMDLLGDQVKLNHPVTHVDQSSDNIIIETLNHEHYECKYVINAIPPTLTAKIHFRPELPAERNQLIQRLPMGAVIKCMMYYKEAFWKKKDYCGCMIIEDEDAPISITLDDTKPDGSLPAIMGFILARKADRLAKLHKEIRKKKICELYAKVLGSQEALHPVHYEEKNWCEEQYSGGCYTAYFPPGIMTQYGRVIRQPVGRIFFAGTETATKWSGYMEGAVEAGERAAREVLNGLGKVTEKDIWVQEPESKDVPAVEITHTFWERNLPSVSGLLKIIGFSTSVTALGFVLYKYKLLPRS
T13 sequence (P27338 whole entry): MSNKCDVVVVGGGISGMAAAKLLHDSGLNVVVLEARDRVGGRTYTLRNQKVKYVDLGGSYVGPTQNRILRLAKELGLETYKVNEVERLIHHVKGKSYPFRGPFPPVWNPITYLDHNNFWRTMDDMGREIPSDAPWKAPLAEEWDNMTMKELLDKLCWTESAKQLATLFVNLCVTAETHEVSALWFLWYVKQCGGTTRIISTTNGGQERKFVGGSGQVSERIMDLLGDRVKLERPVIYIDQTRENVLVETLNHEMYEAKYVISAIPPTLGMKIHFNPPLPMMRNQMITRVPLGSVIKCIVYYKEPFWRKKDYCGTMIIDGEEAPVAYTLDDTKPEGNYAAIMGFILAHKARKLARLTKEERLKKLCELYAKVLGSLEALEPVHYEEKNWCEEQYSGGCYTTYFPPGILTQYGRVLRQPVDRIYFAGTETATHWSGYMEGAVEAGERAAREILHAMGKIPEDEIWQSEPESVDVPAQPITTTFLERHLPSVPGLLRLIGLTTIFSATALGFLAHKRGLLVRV

## Cc1c(Cc2ccc(Cl)nc2)cc2c(c1Cl)OCN([C@H]1CCC[C@@H]1O)C2=O [T‐495, 8‐chloro‐6‐((6‐chloropyridin‐3‐yl)methyl)‐3‐((1S,2S)‐2‐hydroxycyclopentyl)‐7‐methyl‐2,3‐dihydro‐4H‐1,3‐benzoxazin‐4‐one]
[1]
  reduced percentage of alternations: significantly reversed
Steroid 5α-reductase
  % inhibition at 10 μM: 2%
[2]
  inhibition at 10 µM: 9%
Phosphodiesterase PDE6
  inhibition at 10 µM: 6%
Phosphodiesterase PDE4D2
  inhibition at 10 µM: 2%
[3]
  inhibition at 10 µM: 5%
[4]
  % inhibition at 10 μM: 0%
Xanthine oxidase
  inhibition at 10 µM: 7%
[5]
  inhibition at 10 µM: 0%
Phosphodiesterase PDE5
  inhibition at 10 µM: 48%
Peptidase, factor Xa
  inhibition at 10 µM: -2%
[6]
  inhibition at 10 µM: 36%
Cyclooxygenase-2 (COX-2)
  inhibition at 10 µM: 31%
[7]
  inhibition at 10 µM: 5%
Phosphodiesterase PDE4
  % inhibition at 10 μM: 22%
Lipoxygenase (5-LO)
  inhibition at 10 µM: 15%
[8]
  inhibition at 10 µM: 6%
ATPase, Na+/K+, Heart
  % inhibition at 10 μM: 4%
Cannabinoid CB1
  inhibition at 10 µM: 14%
[9]
  % inhibition at 10 μM: 19%
Melatonin MT1
  inhibition at 10 µM: 29%
Muscarinic M2
  inhibition at 10 µM: 8%
Adrenergic β1
  inhibition at 10 µM: 4%
Adenosine A1
  inhibition at 10 µM: 15%
Potassium channel (SKCA)
  % inhibition at 10 μM: 1%
GABAB, non-selective
  % inhibition at 10 μM: 4%
Dopamine D2S
  inhibition at 10 µM: 15%
Histamine H2
  inhibition at 10 µM: 22%
Angiotensin AT2
  inhibition at 10 µM: 0%
Adenosine A2A
  inhibition at 10 µM: -4%
Bradykinin B2
  inhibition at 10 µM: -4%
Dopamine D2L
  inhibition at 10 µM: 4%
Endothelin ETA
  inhibition at 10 µM: -4%
[10]
  inhibition at 10 µM: 8%
Serotonin 5-HT4
  % inhibition at 10 μM: 22%
Dopamine D4.2
  % inhibition at 10 μM: 3%
Androgen (testosterone)
  % inhibition at 10 μM: 3%
Glutamate, kainate
  % inhibition at 10 μM: 13%
[11]
  inhibition at 10 µM: 10%
Histamine H1
  inhibition at 10 µM: 2%
